Laboratory results published in ChEMBL document CHEMBL4765299 (Eur J Med Chem, 2020).

Experiments:
[1] = (§1) against A against n against t against i against p against r against o against l against i against f against e against r against a against t against i against v against e against a against c against t against i against v against i against t against y against a against g against a against i against n against s against t against h against u against m against a against n against K against 5 against 6 against 2 against c against e against l against l against s against a against s against s against e against s against s against e against d against a against s against r against e against d against u against c against t against i against o against n against i against n against c against e against l against l against v against i against a against b against i against l against i against t against y against m against e against a against s against u against r against e against d against a against f against t against e against r against 7 against 2 against h against r against s against b against y against M against T against T against a against s against s against a against y against; type: functional, tissue-based, Homo sapiens; conditions: k562
HepG2 = assay: Antiproliferative against human HepG2 cells assessed as reduction in cell viability measured after 72 hrs by MTT assay; type: functional, cell-based; conditions: HepG2, 72 h
[2] = as §1, with “n against H against C” for “n against K against 5”, “H against C against T” for “K against 5 against 6”, “C against T against -” for “5 against 6 against 2”, “T against - against 8 against c” for “6 against 2 against c”; type: functional, tissue-based, Homo sapiens; conditions: hct-8
[3] = against A against n against t against i against p against r against o against l against i against f against e against r against a against t against i against v against e against a against c against t against i against v against i against t against y against a against g against a against i against n against s against t against h against u against m against a against n against M against D against A against - against M against B against - against 2 against 3 against 1 against c against e against l against l against s against a against s against s against e against s against s against e against d against a against s against r against e against d against u against c against t against i against o against n against i against n against c against e against l against l against v against i against a against b against i against l against i against t against y against m against e against a against s against u against r against e against d against a against f against t against e against r against 7 against 2 against h against r against s against b against y against M against T against T against a against s against s against a against y against; type: functional, tissue-based, Homo sapiens; conditions: mda-mb-231
Sus scrofa = species on record: Sus scrofa; assay: Displacement of [3H]colchicine from porcine brain tubulin at 1 uM incubated for 2 hrs by TopCount scintillation counting method relative to control; type: tissue-based
K562 [4] = assay: Induction of mitochondrial membrane potential depolarization in human K562 cells assessed proportion of cells with collapsed MMP at 5 nM measured after 48 hrs by JC-1 staining based flow cytometry (reference value: 1.57%); type: functional
K562 [5] = assay: Induction of mitochondrial membrane potential depolarization in human K562 cells assessed proportion of cells with intact MMP at 5 nM measured after 48 hrs by JC-1 staining based flow cytometry (reference value: 98.12%); type: functional
K562 [6] = assay: Anti-microtubule activity in human K562 cells assessed as disruption of microtubule network in cytoplasm incubated for 24 hrs by immunofluorescence assay; type: functional, cell-based; conditions: dose 5-20 nM
K562 [7] = assay: Induction of apoptosis in human K562 cells assessed as early apoptotic cells at 5 nM incubated for 48 hrs by AnnexinV-FITC/propidium iodide staining based flow cytometry analysis (reference value: 1.47%); type: functional
K562 [8] = assay: Induction of apoptosis in human K562 cells assessed as late apoptotic cells at 5 nM incubated for 48 hrs by AnnexinV-FITC/propidium iodide staining based flow cytometry analysis (reference value: 1.78%); type: functional
K562 [9] = assay: Induction of apoptosis in human K562 cells assessed as early apoptotic cells at 10 nM incubated for 48 hrs by AnnexinV-FITC/propidium iodide staining based flow cytometry analysis (reference value: 1.47%); type: functional
K562 [10] = assay: Induction of apoptosis in human K562 cells assessed as late apoptotic cells at 10 nM incubated for 48 hrs by AnnexinV-FITC/propidium iodide staining based flow cytometry analysis (reference value: 1.78%); type: functional
K562 [11] = assay: Induction of apoptosis in human K562 cells assessed as early apoptotic cells at 20 nM incubated for 48 hrs by AnnexinV-FITC/propidium iodide staining based flow cytometry analysis (reference value: 1.47%); type: functional
K562 [12] = assay: Induction of apoptosis in human K562 cells assessed as late apoptotic cells at 20 nM incubated for 48 hrs by AnnexinV-FITC/propidium iodide staining based flow cytometry analysis (reference value: 1.78%); type: functional
K562 [13] = assay: Induction of apoptosis in human K562 cells incubated for 48 hrs by AnnexinV-FITC/propidium iodide staining based flow cytometry; type: functional, cell-based; conditions: dose 5-20 nM
HUVEC [14] = assay: Inhibition of cell migration in HUVEC assessed as wound closure at 5 nM after 24 hrs by scratch wound healing assay (reference value: 76.3%); type: functional, Homo sapiens; design: scale not given: the % may be the effect or the level left
HUVEC [15] = assay: Inhibition of cell migration in HUVEC assessed as wound closure at 10 nM after 24 hrs by scratch wound healing assay (reference value: 76.3%); type: functional, Homo sapiens; design: scale not given: the % may be the effect or the level left
HUVEC [16] = assay: Inhibition of cell migration in HUVEC assessed as wound closure at 20 nM after 24 hrs by scratch wound healing assay (reference value: 76.3%); type: functional, Homo sapiens; design: scale not given: the % may be the effect or the level left
K562 [17] = assay: Induction of cell cycle arrest in human K562 cells assessed as accumulation at G1 phase at 10 nM incubated for 48 hrs by propidium iodide/RNase staining based flow cytometry (reference value: 38.83%); type: functional
K562 [18] = assay: Induction of cell cycle arrest in human K562 cells assessed as accumulation at S phase at 10 nM incubated for 48 hrs by propidium iodide/RNase staining based flow cytometry (reference value: 53.48%); type: functional
K562 [19] = assay: Induction of cell cycle arrest in human K562 cells assessed as accumulation at G2/M phase at 10 nM incubated for 48 hrs by propidium iodide/RNase staining based flow cytometry (reference value: 7.7%); type: functional
K562 [20] = assay: Induction of cell cycle arrest in human K562 cells assessed as increase in accumulation at G2/M phase incubated for 48 hrs by propidium iodide/RNase staining based flow cytometry; type: functional; conditions: dose 5-20 nM
K562 [21] = assay: Induction of mitochondrial membrane potential depolarization in human K562 cells assessed proportion of cells with intact MMP at 20 nM measured after 48 hrs by JC-1 staining based flow cytometry (reference value: 98.12%); type: functional
HUVEC [22] = assay: Anti-angiogenesis activity in HUVEC assessed as inhibition of capillary-like tube formation incubated for 6 hrs by Matrigel-based optical microscopy; type: functional, cell-based; conditions: Homo sapiens, dose 5-20 nM
H22 [23] = assay: Antiproliferative activity against mouse H22 cells assessed as inhibition of cell growth by MTT assay; type: functional, cell-based
H22 [24] = assay: Anti-tumor activity against mouse H22 cells allografted in iv dosed ICR mice assessed as reduction in tumor weight administered daily for 21 days; type: functional, organism-based; conditions: dose 15-30 mg/kg/day, time 21.0 day
[25] = Toxicity in ICR mouse allografted with mouse H22 cells assessed as liver morphological changes at 30 mg/kg, iv administered daily for 21 days by hematoxylin and eosin staining based microscopic analysis; type: organism-based; conditions: in vivo, 504 h, dose 30 mg/kg/day, time 21 day
[26] = Toxicity in ICR mouse allografted with mouse H22 cells assessed as spleen morphological changes at 30 mg/kg, iv administered daily for 21 days by hematoxylin and eosin staining based microscopic analysis; type: organism-based; conditions: in vivo, 504 h, dose 30 mg/kg/day, time 21 day
[27] = Toxicity in ICR mouse allografted with mouse H22 cells assessed as lung morphological changes at 30 mg/kg, iv administered daily for 21 days by hematoxylin and eosin staining based microscopic analysis; type: organism-based; conditions: in vivo, 504 h, dose 30 mg/kg/day, time 21 day
[28] = Toxicity in ICR mouse allografted with mouse H22 cells assessed as kidney morphological changes at 30 mg/kg, iv administered daily for 21 days by hematoxylin and eosin staining based microscopic analysis; type: organism-based; conditions: in vivo, 504 h, dose 30 mg/kg/day, time 21 day

C=C(c1cc(Cl)nc(NC)c1)c1ccc(OC)c(O)c1
IC50 [1]: 0.01 µM
IC50 (HepG2): 0.019 µM
IC50 [2]: 0.021 µM
IC50 [3]: 0.02 µM
inhibition (Sus scrofa): 66.5%
Activity (K562 [4]): 13.44%
Activity (K562 [5]): 86.4%
Activity (K562 [6]): Dose-dependent effect
Activity (K562 [7]): 6.6%
Activity (K562 [8]): 3.86%
Activity (K562 [9]): 37.25%
Activity (K562 [10]): 11.3%
Activity (K562 [11]): 43.83%
Activity (K562 [12]): 18.43%
Activity (K562 [13]): Dose-dependent effect
Activity (HUVEC [14]): 67.6%
Activity (HUVEC [15]): 55.3%
Activity (HUVEC [16]): 49.2%
Activity (K562 [17]): 38.45%
Activity (K562 [18]): 50.01%
Activity (K562 [19]): 11.54%
Activity (K562 [20]): Dose-dependent effect
Activity (K562 [21]): 61.55%
Activity (HUVEC [22]): Dose-dependent effect
IC50 (H22 [23]): 0.017 µM
Activity (H22 [24]): Dose-dependent effect
Activity [25]: Non-Toxic
Activity [26]: Non-Toxic
Activity [27]: Non-Toxic
Activity [28]: Non-Toxic
